Source: patent US10662223B2, “Composition for organ, tissue, or cell transplantation, kit, and transplantation method” (GemVax & KAEL Co., Ltd., priority 2014, dated 2020)
“Also recorded” adds a separate entry of the source.

Experiments:
transplanted lung [1] = assay: Rat lung transplantation: wet/dry weight ratio (reperfusion edema); assay type: in vivo, Sprague-Dawley rat; settings: PERFADEX 50 mL + PEP1 5 mg; lower lobe of transplanted lung
Procedure: (§1) The experiment was performed using two rats with the same gene, and lung transplantation was carried out by detaching the left lung from a donor rat and placing the donor's lung in the left thoracic cavity from which an original left lung was removed of the recipient rat. To basically prevent rejection, the rats had the same gene. Both the donor rat and recipient rat had weights of 300 to 350 g, and were the Sprague-Dawley species. Following the extraction of a lung from the donor rat, the lung was transplanted to the recipient rat through surgical procedures.
(§2) During perfusion, mechanical ventilation was continuously performed to allow uniform lung perfusion.
(§3) (4) Following the perfusion, trachea was ligated while the lung expanded under the endotracheal intubation, a heart-lung block was extracted, and then peripheral structures such as esophagus were removed on a cold petri-dish. The heart-lung block was weighed, and subjected to cold storage in a perfusion solution, which was the same as the lung perfusion solution. Ischemic duration was set three hours.
(§4) For the experiment, the lung transplant rats were divided into four groups. […]

[2] = test system: macrophages and neutrophils in renal tissue; assay: Renal IR injury mouse model: innate immune cell infiltration by immunohistochemistry (F4/80, Gr-1); assay type: in vivo, C57BL/6 mouse; settings: 24 hours after IR; 1000 nmol/kg 30 minutes before and 12 hours after IR; compared with PBS control group
Procedure: A renal JR injury mouse model was obtained by inducing IR by bilateral clamping renal pedicles for 30 minutes and restoring blood flow after 30 minutes by removing the clamps. Experimental groups were divided into three groups, which are an administered group (PEP 1), a control group (PBS: without PEP 1 administration), and a Sham group (no bilateral clamping). PEP 1 was subcutaneously injected at a concentration of 1000 nmol/kg 30 minutes before and 12 hours after the IR induction. A C57BL/6 mouse (8-week-old; Charles River Laboratories, Wilmington, Mass.) was used to induce renal IR injury. The renal pedicles were clamped with vascular forceps to block blood flow, and ischemia was induced for […] in the renal IR injury model, followed by reperfusion. The peptide PEP 1 was diluted with PBS to a concentration of 1000 nmol/kg, and then intraperitoneally injected twice, 30 minutes before and 12 hours after the IR. […] Infiltration of innate immune cells was evaluated by staining the renal tissue with a macrophage maker (F4/80) and a neutrophil maker (Gr-1) through immunohistochemistry 24 hours after the IR. Specifically, infiltrated macrophages and neutrophils were stained with a macrophage-specific antibody (F4/80, abcam., Cambridge, Mass.) by an immunochemical method performed on paraffin-containing sections.

renal tissue = assay: Renal IR injury mouse model: TUNEL staining, renal apoptosis; assay type: in vivo, C57BL/6 mouse; settings: 24 hours after IR; 1000 nmol/kg 30 minutes before and 12 hours after IR; compared with PBS control group
Procedure: A renal JR injury mouse model was obtained by inducing IR by bilateral clamping renal pedicles for 30 minutes and restoring blood flow after 30 minutes by removing the clamps. Experimental groups were divided into three groups, which are an administered group (PEP 1), a control group (PBS: without PEP 1 administration), and a Sham group (no bilateral clamping). PEP 1 was subcutaneously injected at a concentration of 1000 nmol/kg 30 minutes before and 12 hours after the IR induction. A C57BL/6 mouse (8-week-old; Charles River Laboratories, Wilmington, Mass.) was used to induce renal IR injury. The renal pedicles were clamped with vascular forceps to block blood flow, and ischemia was induced for […] in the renal IR injury model, followed by reperfusion. The peptide PEP 1 was diluted with PBS to a concentration of 1000 nmol/kg, and then intraperitoneally injected twice, 30 minutes before and 12 hours after the IR. […] Renal apoptosis was evaluated by staining renal tissue with TUNEL stain 24 hours after the IR. Renal paraffin sections were stained with TUNEL using a TUNEL staining kit (Roche Applied Science, Indianapolis, Ind., USA).

MCP-1 = assay: Renal IR injury mouse model: MCP-1 level in renal tissue; assay type: in vivo, C57BL/6 mouse; settings: 24 hours after IR; 1000 nmol/kg 30 minutes before and 12 hours after IR; compared with PBS control group
Procedure: (§5) A renal JR injury mouse model was obtained by inducing IR by bilateral clamping renal pedicles for 30 minutes and restoring blood flow after 30 minutes by removing the clamps. Experimental groups were divided into three groups, which are an administered group (PEP 1), a control group (PBS: without PEP 1 administration), and a Sham group (no bilateral clamping). PEP 1 was subcutaneously injected at a concentration of 1000 nmol/kg 30 minutes before and 12 hours after the IR induction.
(§6) A C57BL/6 mouse (8-week-old; Charles River Laboratories, Wilmington, Mass.) was used to induce renal IR injury. The renal pedicles were clamped with vascular forceps to block blood flow, and ischemia was induced for […] in the renal IR injury model, followed by reperfusion.
(§7) The peptide PEP 1 was diluted with PBS to a concentration of 1000 nmol/kg, and then intraperitoneally injected twice, 30 minutes before and 12 hours after the IR.
(§8) Protein was extracted from renal tissue 24 hours after the IR, and IL-6, MCP-1 and TNF-α levels were measured by a cytometric bead array. Mouse IL-6, MCP-1, TNF-α, and an ELISA kit were purchased from R&D Systems, and the experiment was conducted according to the manufacturer's protocol.

transplanted lung [3] = assay: Rat lung transplantation: analysis of bronchoalveolar lavage fluid (BAL); assay type: in vivo, Sprague-Dawley rat; settings: PERFADEX 50 mL + PEP1 5 mg
Procedure: as §1, §2, §3, §4

transplanted lung [4] = assay: Rat lung transplantation: H&E staining of alveolar tissue; assay type: in vivo, Sprague-Dawley rat
Procedure: as §1, §2, §3, §4

abdominal skin flap = assay: Flap IR injury rat model: flap survivability; assay type: in vivo, Sprague-Dawley Rat; settings: 7 days after IR induction; 10 mg/500 μl intramuscularly 30 minutes before and 1, 2, 3, 4, 5, and 7 days after IR; 7 hours ischemia
Procedure: Transplantation of a flap of the rectus abdominis was carried out as follows. An IR injury rat model was obtained by detaching a flap with a size of 5 cm×5 cm from abdominal skin of a white rat (Sprague-Dawley Rat, 180 to 230 g), adding PEP1 or saline to the rat, inducing ischemia through clamping, and restoring blood flow after 7 hours by removing the clamps (refer to FIG. 11).
Experimental groups were divided into three groups, which are an administered group (PEP 1), a control group (PBS without PEP 1), and a sham group (group in which no IR injury induced). PEP 1 (10 mg/500 μl) or saline (500 Id) was intramuscularly injected 30 minutes before and 1, 2, 3, 4, 5, and 7 days after the IR induction.
Flap survivability was measured 7 days after the IR induction. The flap survivability was measured through digital image analysis using imageJ program.

TNF-α = assay: Renal IR injury mouse model: TNF-α level in renal tissue; assay type: in vivo, C57BL/6 mouse; settings: 24 hours after IR; 1000 nmol/kg 30 minutes before and 12 hours after IR; compared with PBS control group
Procedure: as §5, §6, §7, §8

[5] = test system: renal IR injury mouse model; assay: Renal IR injury mouse model: blood urea nitrogen (BUN) and creatine; assay type: in vivo, C57BL/6 mouse; settings: 24 hours after IR; 1000 nmol/kg 30 minutes before and 12 hours after IR; compared with PBS control group
Procedure: as §5, §6, §7
Blood was taken 24 hours after the JR and the levels of blood urea nitrogen (BUN) and creatine as renal toxicity markers were measured, renal tissue was taken and prepared into paraffin blocks for immunohistochemical and histological studies, and then proteins were extracted to measure cytokine levels. The creatine concentration and BUN were measured using an autoanalyzer (Technicon RA-1000; Bayer, Tarrytown, N.Y.).

IL-6 = assay: Renal IR injury mouse model: IL-6 level in renal tissue; assay type: in vivo, C57BL/6 mouse; settings: 24 hours after IR; 1000 nmol/kg 30 minutes before and 12 hours after IR; compared with PBS control group
Procedure: as §5, §6, §7, §8

[6] = PERFADEX 50 mL + PEP1 5 mg as lung preservation solution

EARPALLTSRLRFIPK (listed as Homo sapiens) [PEP 1, 16 aa peptide derived from Homo sapiens telomerase, position [611-626]]
reperfusion edema (wet/dry weight ratio) compared with normal saline administered group (transplanted lung [1]): significantly (p<0.05) decreased | reperfusion edema level among the four groups (transplanted lung [1]): lowest level | infiltration of macrophages into renal tissue (F4/80) [2]: remarkably decreased; also recorded: inhibited | infiltration of neutrophils into renal tissue (Gr-1) [2]: remarkably decreased; also recorded: inhibited | TUNEL-positive cells (renal apoptosis) (renal tissue): remarkably decreased | MCP-1 level in renal tissue (MCP-1): significantly decreased; also recorded: significantly inhibited | expression of inflammatory cells in BAL among the four groups (transplanted lung [3]): lowest expression | preventing hemorrhage and maintaining the alveolar wall, 5 mg PEP1 rather than 50 mg PEP1 (transplanted lung [4]; PEP1 added to PERFADEX 50 mL, 5 mg compared with 50 mg): more effective | alveolar wall of transplanted lung (H&E) (transplanted lung [4]; [6]): did not get harder | hemorrhage in transplanted lung (H&E) (transplanted lung [4]; [6]): rarely occurred | flap survivability (abdominal skin flap): 58.88%±11.44% | TNF-α level in renal tissue (TNF-α): no significant difference | blood urea nitrogen (BUN) level [5]: significantly decreased | creatine level [5]: significantly decreased | IL-6 level in renal tissue (IL-6): significantly decreased; also recorded: significantly inhibited
